Measured values from PMC8305076, “Comprehensive Evaluation of Biological Effects of Pentathiepins on Various Human Cancer Cell Lines and Insights into Their Mode of Action” (International Journal of Molecular Sciences, 2021).

Tests used:
Type in all cases: cell-based, human
seven cancer cell lines [1] = assay: cell cycle analysis (summary); parameters: key: no impact (0); weak impact (+); strong impact (++); conditions: summary grade
Description: (§1) The potent cytotoxicity and the potential to inhibit the proliferation of cancer cells accompanied by DNA damage effects raised the question as to whether cell cycle progression might be affected as a result of treatment with pentathiepins.
(§2) Cells were harvested by trypsinization, collected in 1.5 mL tubes, and washed twice with PBS by centrifuging for 5 min at 500× g and discarding the supernatant after every step. For fixation, 500 µL of ice-cold ethanol (70%) was added dropwise under vortexing with a subsequent incubation on ice for 30 min. Then, the cells were centrifuged for 10 min at 4000 rpm and 4 °C, the supernatant was removed, and the cells were resuspended in 500 µL of PBS containing 25 µg/mL of PI and 100 µg/mL of RNase. The staining solution was incubated for 30 min, and the cell suspension was measured at λEx/Em = 488/655–730 nm using a MACSquant Analyzer 10 (Miltenyi Biotec, Teterow, Germany).

DanG = assay: cell cycle analysis (PI staining); conditions: IC90, 24 and 48 h (Figure 19a)
Description: as §1, §2

HAP-1 = assay: cell cycle analysis (PI staining); conditions: IC90, 24 h
Description: as §1, §2

HAP-1.KO.GPx1 = assay: cell cycle analysis (PI staining); conditions: IC90, 24 h
Description: as §1, §2

[2] = tested on: HAP-1, HAP-1.KO.GPx1, Siso and A2780 cells; assay: cellular morphology after 24 h; parameters: key: no impact (0); weak impact (+); strong impact (++); conditions: summary grade
From the text: All new pentathiepins induced apoptosis, although to different extents and in a cell line-dependent manner. […] In the corresponding GPx1-knockout cell line, the effect of doxorubicin was higher (about 50%), whereas only two of the pentathiepins induced apoptosis, namely, 3 and 5. The fractions of early apoptotic cells were 34 and 15%, respectively, and the population of late apoptotic cells 6% for 3. In the ovarian carcinoma cell line A2780 the overall effects were marginal, but all compounds except 6 increased the percentage of early apoptotic cells to 6–14%, with 3 resulting in the highest amount. In the Siso cell line, pentathiepin 3 increased both the number of early and late apoptotic cells to about 20%, which exceeded the effects of doxorubicine (0.5 µM). These findings were further corroborated by the observation of morphological features such as membrane blebbing and cell shrinkage as particular hallmarks of apoptosis (Figure S51).
Figure S51: Representative images of cellular morphology after an incubation for 24 h with the respective pentathiepins 1-6 (IC90) or a corresponding volume of DMF as negative control in HAP-1, HAP-1.KO.GPx1, Siso and A2780 cells. Arrows denote membrane blebbing, dashed arrows label cell shrinkage.
(§3) (1 picture or pasted object on this page, not shown here)

[3] = tested on: HAP-1, HAP-1.KO.GPx1, A2780 and Siso; assay: adapted MTT assay with ferrostatin-1 (ferroptosis); parameters: key: no impact (0); weak impact (+); strong impact (++); conditions: summary grade
Description: Not only apoptosis may contribute to the mainly ROS-based cytotoxicity of the pentathiepins but also ferroptosis, which derives from iron-dependent oxidative damage of the cell membrane. This form of programmed cell death is initiated via lipid peroxidation, which is normally held in check by the membrane-bound GPx4, an isoform of GPx1. As pentathiepins are potent GPx1 inhibitors, we indirectly investigated the possible role of GPx4 inhibition by precluding ferroptosis. Here, cells were incubated with a serial dilution of the respective pentathiepin, and either ferrostatin-1 (Fer-1) or vehicle control (DMSO) was added; Fer-1 is an established inhibitor of ferroptosis. The cell viability was measured after 48 h, and the activity of the compounds after adding or omitting Fer-1 was compared (Figure S50).
This experiment was performed similarly to that described in the previous section. To assess the importance of ferroptosis for cell death, a co-incubation of the cells with a serial dilution of the pentathiepins and ferrostatin-1 (Fer-1) as a known inhibitor of ferroptosis was performed. As negative control, the cells were incubated with the serial dilution of the test compounds and an amount of DMSO corresponding to the Fer-1 treatment solution. If ferroptosis were to be involved in the cytotoxicity of the compounds, the addition of Fer-1 should protect cells from the treatment with pentathiepin. […] The IC50 values were calculated as described above, and Fer-1-treated cells were set in relation to those without the additive.
Figure S50: Relative IC 50 in the four human cancer cell lines HAP -1, HAP -1.KO.GPx1, A2780 and Siso after treatment with pentathiepins 1-6 with either vehicle control (DMSO) or 1.5 or 6.0 µM ferrostatin -1 (Fer -1), respectively, for 48 h. The IC 50 of Fer-1-treated cells were relat ed to DMSO-treated samples (set to 1, dashed line) […]
as §3

seven cancer cell lines [4] = assay: DCFDA flow cytometric ROS assay, acute; parameters: key: no impact (0); weak impact (+); strong impact (++); conditions: summary grade
Description: According to the hypothesized mechanism of action (see Figure 3), pentathiepins can create oxidative stress via generation of reactive sulfur precursors. We have previously reported that a representative pentathiepin can increase the intracellular levels of ROS in two cancer cell lines. This effect was thus further evaluated with the new compounds in seven cell lines (Figure 8). The cells were incubated for 15 min with 25.0 µM pentathiepin and subsequently analyzed by using the intracellular ROS sensor 2′,7′-dichlorodihydrofluorescein diacetate (DCFDA) by flow cytometry.
In order to quantify intracellular ROS, we performed a flow cytometric assay based on the ROS-sensor 2′,7′-dichlorofluorescein diacetate (DCFDA). For acute effects of pentathiepins on intracellular ROS levels, the cells were stained with DCFDA first and subsequently incubated with 25 µM of compound for 10 min. […] Per condition, 250,000 cells were seeded in 2 mL of medium per well of a 6-well plate and allowed to adhere overnight. For measurement of acute ROS, the cells were stained with 1 mL of a 20 µM DCFDA-PBS solution for 30 min under standard incubation conditions. Afterwards, the solution was discarded, and the monolayer washed twice with 1 mL of PBS before 3 mL of medium containing 25 µM of pentathiepin was added for 10 min at 37 °C. After removing the solution and washing again with PBS, the cells were detached by using 0.5 mL of a diluted trypsin/EDTA-PBS solution (25%) and harvested with 1 mL of culture medium by carefully rinsing the wells. The cell suspension was transferred to 1.5 mL tubes, centrifuged for 5 min at 500× g, and washed with 1 mL of PBS. After removing the supernatant, each pellet was resuspended in 0.5 mL of PBS for measurement via the MACSquant Analyzer 10 at λEx/Em = 488/530 nm. Relative ROS levels resulting from treatment with pentathiepin were calculated by relating the fluorescence intensity of treated samples to the negative control. For the experiments covering periods of 24 and 48 h, the cells were incubated with the compounds first and stained with DCFDA afterwards. To assess the influence of additional GSH, we included 3 or 30 µM GSH to the medium containing 25 µM of pentathiepin, and the protocol was followed as described.

Structure (SMILES)	G0/G1 arrest (seven cancer cell lines [1])	G2/M arrest (seven cancer cell lines [1])	cell cycle distribution vs control (DanG)	increase of cells in G2/M-phase (HAP-1)	increase of cells in G2/M-phase (HAP-1.KO.GPx1)	Morphological changes [2]	Ferroptosis [3]	ROS induction (seven cancer cell lines [4])	decrease of G0/G1-phase cells (DanG)	increase of cells in G2/M-phase (DanG)	increase of cells in sub G1-phase (DanG)	increase of cells in sub G1-phase (HAP-1)	increase of cells in sub G1-phase (HAP-1.KO.GPx1)
CCOc1c2c(c3cnc4[nH]c(-c5ccc(OC)cc5)cc4n13)SSSSS2 [Compound 1, 11-Ethoxy-2-(4-methoxyphenyl)-3H-[1,2,3,4,5]pentathiepino[6′,7′:3,4]pyrrolo[1,2-a]pyrrolo[2,3-e]pyrazine]	+	0	caused no differences from a normal cell cycle	No such effects were detected	No such effects were detected	0	0	0					
CCOc1c2c(c3ccc(C(=O)N4CCCCC4)cn13)SSSSS2 [Compound 2, (6-Ethoxy-[1,2,3,4,5]pentathiepino[6,7-a]indolizin-9-yl)(piperidinyl)methanone]	0	+		≤ 30%	≤ 30%	+	0	++	roughly 15%	6%	8%	up to 10%	up to 10%
CCOc1c2c(c3ccc(C(=O)N4CCOCC4)cn13)SSSSS2 [Compound 3, (6-Ethoxy-[1,2,3,4,5]pentathiepino[6,7-a]indolizin-9-yl)(morpholino)methanone]	0	+		≤ 30%	≤ 30%	++	0	++	roughly 15%	6%	8%	up to 10%	up to 10%
CCOc1c2c(c3ccc(C(=O)N(CC)CC)cn13)SSSSS2 [Compound 4, 6-Ethoxy-N,N’-diethyl-[1,2,3,4,5]pentathiepino[6,7-a]indolizine-9-carboxamide]	0	+		≤ 30%	≤ 30%	++	0	++	roughly 15%	6%	8%	up to 10%	up to 10%
CCOc1c2c(c3ccc(C(=O)N4CCN(C(=O)c5ccc(F)cc5)CC4)cn13)SSSSS2 [Compound 5, (6-Ethoxy-[1,2,3,4,5]pentathiepino[6,7-a]indolizin-9-yl)(4-(4-fluorobenzoyl)piperazinyl)methanone]	0	+		≤ 30%	≤ 30%	++	0	++	roughly 15%	6%	8%	up to 10%	up to 10%
CCOc1c2c(c3ccc(C(=O)N4CCN(S(=O)(=O)c5ccc(C)cc5)CC4)cn13)SSSSS2 [Compound 6, (6-Ethoxy-[1,2,3,4,5]pentathiepino[6,7-a]indolizin-9-yl)(4-tosylpiperazinyl)methanone]	+	0	caused no differences from a normal cell cycle	No such effects were detected	No such effects were detected	+	0	+					
